Source: ChEMBL document CHEMBL3045660, “Regioselective synthesis of fraxinellone-based hydrazone derivatives as insecticidal agents” (2012)

How the values were obtained:
Format in all cases: functional
Mythimna separata [1] = assay: Insecticidal activity against pre-third-instar larvae of Mythimna separata (Oriental armyworm) in compound treated fresh corn leaves assessed as corrected mortality at 1 mg/ml measured after 10 days by leaf-dipping method; conditions: 240 h
Mythimna separata [2] = assay: Insecticidal activity against pre-third-instar larvae of Mythimna separata (Oriental armyworm) in compound treated fresh corn leaves assessed as corrected mortality at 1 mg/ml measured after 35 days by leaf-dipping method; conditions: 840 h
Mythimna separata [3] = assay: Insecticidal activity against pre-third-instar larvae of Mythimna separata (Oriental armyworm) in compound treated fresh corn leaves assessed as corrected mortality at 1 mg/ml measured after 20 days by leaf-dipping method; conditions: 480 h

Row | SMILES | mortality at 1000 µg/mL (Mythimna separata [1]) [%] | mortality at 1000 µg/mL (Mythimna separata [2]) [%] | mortality at 1000 µg/mL (Mythimna separata [3]) [%]
1 | COc1ccc(C(=O)N/N=C/C2=C3C(=O)O[C@@H](c4ccoc4)[C@]3(C)CCC2)cc1 | 37.9 | 50 | 44.4
2 | C[C@@]12CCCC(/C=N/NC(=O)c3ccc([N+](=O)[O-])cc3[N+](=O)[O-])=C1C(=O)O[C@H]2c1ccoc1 | 31 | 53.8 | 40.7
3 | CC1=C2C(=O)O[C@@H](c3ccoc3)[C@]2(C)CC/C1=N\NC(=O)c1ccccc1 | 58.6 | 76.9 | 63
4 | CC1=C2C(=O)O[C@@H](c3ccoc3)[C@]2(C)CC/C1=N\NC(=O)c1ccc([N+](=O)[O-])cc1 | 58.6 | 65.4 | 63
5 | CC1=C2C(=O)O[C@@H](c3ccoc3)[C@]2(C)CC/C1=N\NC(=O)c1cccc(Cl)c1 | 58.6 | 69.2 | 59.3
6 | CC1=C2C(=O)O[C@@H](c3ccoc3)[C@]2(C)CC/C1=N\NC(=O)c1ccncc1 | 24.1 | 50 | 33.3
7 | CC1=C2C(=O)O[C@@H](c3ccoc3)[C@]2(C)CC/C1=N\NC(=O)c1cccs1 | 20.7 | 38.5 | 29.6
8 | CC1=C2C(=O)O[C@@H](c3ccoc3)[C@]2(C)CC/C1=N\NC(=O)CC#N | 34.5 | 61.5 | 33.3
9 | CC1=C2C(=O)O[C@@H](c3ccoc3)[C@]2(C)CC/C1=N\Nc1ccccc1 | 10.3 | 46.2 | 22.2
10 | CC1=C2C(=O)O[C@@H](c3ccoc3)[C@]2(C)CC/C1=N\Nc1ccc([N+](=O)[O-])cc1 | 34.5 | 53.8 | 40.7
11 | CC1=C2C(=O)O[C@@H](c3ccoc3)[C@]2(C)CC/C1=N\Nc1ccccc1[N+](=O)[O-] | 24.1 | 46.2 | 33.3
12 | CC1=C2C(=O)O[C@@H](c3ccoc3)[C@]2(C)CC/C1=N\Nc1c(F)c(F)cc(F)c1F | 27.6 | 50 | 40.7
13 | C[C@@]12CCCC(/C=N/NC(=O)c3ccccc3)=C1C(=O)O[C@H]2c1ccoc1 | 58.6 | 65.4 | 55.6
14 | C[C@@]12CCCC(/C=N/NC(=O)c3ccc([N+](=O)[O-])cc3)=C1C(=O)O[C@H]2c1ccoc1 | 37.9 | 61.5 | 48.1
15 | C[C@@]12CCCC(/C=N/NC(=O)c3cccc(Cl)c3)=C1C(=O)O[C@H]2c1ccoc1 | 44.8 | 53.8 | 40.7
16 | C[C@@]12CCCC(/C=N/NC(=O)c3ccncc3)=C1C(=O)O[C@H]2c1ccoc1 | 55.2 | 73.1 | 66.7
17 | C[C@@]12CCCC(/C=N/NC(=O)c3cccs3)=C1C(=O)O[C@H]2c1ccoc1 | 24.1 | 34.6 | 29.6
18 | C[C@@]12CCCC(/C=N/NC(=O)CC#N)=C1C(=O)O[C@H]2c1ccoc1 | 55.2 | 69.2 | 66.7
19 | C[C@@]12CCCC(/C=N/Nc3ccccc3)=C1C(=O)O[C@H]2c1ccoc1 | 27.6 | 53.8 | 44.4
20 | C[C@@]12CCCC(/C=N/Nc3ccc([N+](=O)[O-])cc3)=C1C(=O)O[C@H]2c1ccoc1 | 20.7 | 38.5 | 14.8
21 | C[C@@]12CCCC(/C=N/Nc3ccccc3[N+](=O)[O-])=C1C(=O)O[C@H]2c1ccoc1 | 13.8 | 50 | 37
22 | C[C@@]12CCCC(/C=N/Nc3c(F)c(F)cc(F)c3F)=C1C(=O)O[C@H]2c1ccoc1 | 37.9 | 61.5 | 40.7
23 | Cc1cccc(C(=O)N/N=C/C2=C3C(=O)O[C@@H](c4ccoc4)[C@]3(C)CCC2)c1 | 41.4 | 53.8 | 44.4
24 | C[C@@]12CCCC(C=O)=C1C(=O)O[C@H]2c1ccoc1 [3-FORMYLFRAXINELLONE] | 17.2 | 34.6 | 25.9
25 | CC1=C2C(=O)O[C@@H](c3ccoc3)[C@]2(C)CCC1 [FRAXINELLONE] | 41.4 | 53.8 | 40.7
26 | CC1=C2C(=O)O[C@@H](c3ccoc3)[C@]2(C)CCC1=O [FRAXINELLONONE] | 48.3 | 57.7 | 48.1
27 | CC(=O)O[C@@H]1C[C@H](O)[C@@]23CO[C@@H](O)[C@]1(C)[C@@H]2C[C@@H](O)[C@]1(C)[C@@H]3C(=O)[C@H](OC(C)=O)[C@@]2(C)[C@H](c3ccoc3)C[C@H]3O[C@]321 [TOOSENDANIN] | 24.1 | 53.8 | 33.3
